Assay results reported in article PMC6021502, “Cannabigerol Action at Cannabinoid CB1 and CB2 Receptors and at CB1–CB2 Heteroreceptor Complexes” (Frontiers in Pharmacology, 2018).

Key:
SNAP-CB2R [1] = molecular target: T1, SNAP-CB2R (Homo sapiens, UniProt P34972); design: method as in Martínez-Pinilla et al., 2016; conditions: HTRF binding to CB2R; ref Martínez-Pinilla et al., 2016; read-out: KD used in the Cheng and Prusoff equation for homogeneous binding; cited from earlier work
T1 construct: host or cells: HEK-293T, transient transfection (PEI)
T1 sequence (P34972 whole entry): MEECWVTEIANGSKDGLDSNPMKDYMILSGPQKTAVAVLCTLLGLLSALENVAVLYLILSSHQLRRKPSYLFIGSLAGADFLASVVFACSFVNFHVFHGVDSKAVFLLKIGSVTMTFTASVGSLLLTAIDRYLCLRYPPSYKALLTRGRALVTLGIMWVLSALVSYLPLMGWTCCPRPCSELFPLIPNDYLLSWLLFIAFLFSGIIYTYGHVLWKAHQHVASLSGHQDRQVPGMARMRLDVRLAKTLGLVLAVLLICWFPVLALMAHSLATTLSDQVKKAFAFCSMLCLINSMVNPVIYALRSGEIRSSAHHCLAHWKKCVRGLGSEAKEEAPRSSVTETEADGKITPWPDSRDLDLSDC

SNAP-CB2R [2] = molecular target: T1, SNAP-CB2R; test: Homogeneous HTRF competition binding in living HEK-293T cells (fluorophore-conjugated CM-157); conditions: living HEK-293T cells expressing SNAP-CB2R, 20 nM fluorescent ligand
[3] = molecular target: T2, CB2R in a CB1–CB2 receptor heteromer context (Homo sapiens, UniProt P34972); test: Homogeneous HTRF competition binding in living HEK-293T cells expressing SNAP-CB2R and CB1R; conditions: 20 nM fluorescent ligand, read-out: Ki, HTRF competition of fluorophore-conjugated CM-157 in the presence of CB1R
T2 construct: host or cells: HEK-293T, transient co-transfection (PEI)
T2 sequence (P34972 whole entry): as above
T2 sequence (P21554 whole entry partner): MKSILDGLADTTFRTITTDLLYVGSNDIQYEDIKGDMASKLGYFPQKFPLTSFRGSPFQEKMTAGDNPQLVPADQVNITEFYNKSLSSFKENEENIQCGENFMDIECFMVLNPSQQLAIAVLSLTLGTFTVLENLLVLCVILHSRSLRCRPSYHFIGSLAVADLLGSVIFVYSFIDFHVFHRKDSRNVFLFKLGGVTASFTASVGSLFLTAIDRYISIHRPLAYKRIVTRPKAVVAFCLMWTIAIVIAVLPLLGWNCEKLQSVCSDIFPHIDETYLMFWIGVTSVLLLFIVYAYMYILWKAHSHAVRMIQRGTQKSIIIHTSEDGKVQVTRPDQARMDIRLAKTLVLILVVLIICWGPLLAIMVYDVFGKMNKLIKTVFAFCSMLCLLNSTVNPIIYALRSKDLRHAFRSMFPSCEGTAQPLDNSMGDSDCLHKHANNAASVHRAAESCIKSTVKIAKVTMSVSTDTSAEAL

## CC(C)(C)c1nc2cc(S(=O)(=O)c3ccnc(OCCCN)c3)ccc2n1CC1CCOCC1 [CM-157, 3-[[4-[2-tert-butyl-1-(tetrahydropyran-4-ylmethyl)benzimidazol-5-yl]sulfonyl-2-pyridyl]oxy]propan-1-amine, reference compound]
SNAP-CB2R [1]
  Kd: 21 nM
SNAP-CB2R [2]
  Ki: 16 nM
[3]
  Ki: 19 nM
